From ChEMBL document CHEMBL4295262, “Evaluation of the utility of stem-cell derived cardiomyocytes for drug proarrhythmic potential” (2019)

How the values were obtained:
Details in all cases: human, ipsc-cm
[1] = (§1) Electrical activity assay on cell lines treated with a given drug. DMSO was used as a vehicle and a control, unblinded dofetilide was used as a control.; format: ADME, cell-based
[2] = as §1; format: ADME, cell-based; remark: listed apart in the source
[3] = as §1; format: ADME, cell-based; parameters: FPDc: unit not given here
[4] = as §1
[5] = as §1; remark: listed apart in the source
[6] = 0.1 µM, concentration (um) 0.1 uM
[7] = 10 µM, concentration (um) 10 uM
[8] = 100 µM, concentration (um) 100 uM

SMILES: CC(C)N(CCC(C(N)=O)(c1ccccc1)c1ccccn1)C(C)C (stereo not drawn) [DISOPYRAMIDE]
- FPD measurement [1, 6]: 49.69 FPDc
- FPDc [1, 6]: 6 Values Out Of 6 Were Excluded Due To Quiescence Or 0 Fpdc
- FPD measurement ([1]; 1 µM, concentration (um) 1 uM): 52.18 FPDc
- FPDc ([1]; 1 µM, concentration (um) 1 uM): 6 Values Out Of 6 Were Excluded Due To Quiescence Or 0 Fpdc
- FPD measurement [1, 7]: 63.31 FPDc
- FPDc [1, 7]: 6 Values Out Of 6 Were Excluded Due To Quiescence Or 0 Fpdc
- FPDc [1, 8]: 6 Values Out Of 6 Were Excluded Due To Quiescence Or 0 Fpdc
- FPD measurement [2, 6]: 5 Values Out Of 5 Were Excluded Due To Quiescence Or 0 Apdc
- FPDc [2, 6]: 23.29
- FPD measurement ([2]; 1 µM, concentration (um) 1 uM): 5 Values Out Of 5 Were Excluded Due To Quiescence Or 0 Apdc
- FPDc ([2]; 1 µM, concentration (um) 1 uM): 24.45
- FPD measurement [2, 7]: 5 Values Out Of 5 Were Excluded Due To Quiescence Or 0 Apdc
- FPDc [2, 7]: 24.5
- FPD measurement [2, 8]: More Than Half The Wells Had A Quiescence Event Or Apdc Readings Of 0
- FPDc [2, 8]: More Than Half The Wells Had A Quiescence Event Or Fpdc Readings Of 0
- FPD measurement [3, 6]: 5 Values Out Of 5 Were Excluded Due To Quiescence Or 0 Apdc
- FPDc [3, 6]: 48.43
- FPD measurement ([3]; 1 µM, concentration (um) 1 uM): 5 Values Out Of 5 Were Excluded Due To Quiescence Or 0 Apdc
- FPDc ([3]; 1 µM, concentration (um) 1 uM): 75.52
- FPDc [3, 7]: 26.6
- FPD measurement [3, 8]: 5 Values Out Of 5 Were Excluded Due To Quiescence Or 0 Apdc
- FPDc [3, 8]: 18.51
- FPD measurement ([4]; 0.1 µM): 1 Values Out Of 1 Were Excluded Due To Quiescence Or 0 Fpdc
- FPDc ([4]; 0.1 µM): 1 Values Out Of 1 Were Excluded Due To Quiescence Or 0 Fpdc
- FPD measurement ([4]; 1 µM): 1 Values Out Of 1 Were Excluded Due To Quiescence Or 0 Fpdc
- FPDc ([4]; 1 µM): 1 Values Out Of 1 Were Excluded Due To Quiescence Or 0 Fpdc
- FPD measurement ([4]; 10 µM): 1 Values Out Of 1 Were Excluded Due To Quiescence Or 0 Fpdc
- FPDc ([4]; 10 µM): 1 Values Out Of 1 Were Excluded Due To Quiescence Or 0 Fpdc
- FPD measurement ([4]; 100 µM): 1 Values Out Of 1 Were Excluded Due To Quiescence Or 0 Fpdc
- FPDc ([4]; 100 µM): 1 Values Out Of 1 Were Excluded Due To Quiescence Or 0 Fpdc
- APDc ([5]; 0.1 µM): 56.58
- FPD measurement ([5]; 0.1 µM): 56.58 FPDc
- APDc ([5]; 1 µM): 63.45
- FPD measurement ([5]; 1 µM): 63.45 FPDc
- APDc ([5]; 10 µM): 68.66
- FPD measurement ([5]; 10 µM): 68.66 FPDc
- APDc ([5]; 100 µM): 66.87
- FPD measurement ([5]; 100 µM): 66.87 FPDc
